Values of other authors, collected in patent publication US11707478B2, “Method for increasing uridine concentration in blood plasma” (N.V. Nutricia, priority 2016, dated 2023).

What was measured:
CNT 1 = target: T1, CNT 1 (Homo sapiens, UniProt O00337); conditions: CNT 1 in the gut and in many other cells; read-out: apparent Km value of main transporter
T1 sequence (O00337 1-649): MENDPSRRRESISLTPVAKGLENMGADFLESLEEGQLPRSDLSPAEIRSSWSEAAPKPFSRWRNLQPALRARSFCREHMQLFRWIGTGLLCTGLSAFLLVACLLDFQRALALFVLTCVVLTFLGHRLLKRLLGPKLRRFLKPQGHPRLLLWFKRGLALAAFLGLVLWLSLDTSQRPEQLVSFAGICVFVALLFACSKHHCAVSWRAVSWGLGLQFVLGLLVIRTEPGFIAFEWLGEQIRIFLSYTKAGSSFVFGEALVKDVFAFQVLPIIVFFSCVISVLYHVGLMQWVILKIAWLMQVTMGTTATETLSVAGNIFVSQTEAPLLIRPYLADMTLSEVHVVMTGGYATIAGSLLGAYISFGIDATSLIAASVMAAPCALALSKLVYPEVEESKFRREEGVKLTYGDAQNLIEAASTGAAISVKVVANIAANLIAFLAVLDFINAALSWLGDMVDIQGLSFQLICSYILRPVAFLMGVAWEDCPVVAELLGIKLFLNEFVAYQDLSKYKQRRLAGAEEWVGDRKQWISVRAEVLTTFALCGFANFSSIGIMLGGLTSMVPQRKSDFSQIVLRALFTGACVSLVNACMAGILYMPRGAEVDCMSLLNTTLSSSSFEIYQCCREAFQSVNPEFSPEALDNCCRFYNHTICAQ

[1] = oral administration of uridine, Klubes 1986

O=c1ccn([C@@H]2O[C@H](CO)[C@@H](O)[C@H]2O)c(=O)[nH]1 [Uridine, 1-[(2R,3R,4S,5R)-3,4-dihydroxy-5-(hydroxymethyl)oxolan-2-yl]pyrimidine-2,4-dione]
Km (CNT 1): 6 to 16 µM
bioavailability [1]: about 7%
